Measured values taken from patent US20120027687A1, “FATTY ACID PROTEIN KINASE C ACTIVATORS AND ANTICOAGULANT FOR THE TREATMENT OF STROKE” (priority 2010, published 2012).
Read-outs that look alike come from different tables or passages of the source. Blank lines part the entries; values can stand above or below the compound they belong to.

Experiments:
[1] = biological target: PKC; conditions: cited from earlier work; for Ki: A-ring bryologs, read-out: affinity for PKC
[2] = system: NIC 60 cell line screen; conditions: cited from earlier work
[3] = biological target: T1, PKCε (Homo sapiens, UniProt Q02156); assay: PKC assay with purified PKCε; type: biochemical; conditions: for effect on purified PKCε (FIG. 7, FIG. 8): preincubated five minutes, radiometric
T1 construct: purchased Calbiochem
T1 sequence (Q02156 1-737): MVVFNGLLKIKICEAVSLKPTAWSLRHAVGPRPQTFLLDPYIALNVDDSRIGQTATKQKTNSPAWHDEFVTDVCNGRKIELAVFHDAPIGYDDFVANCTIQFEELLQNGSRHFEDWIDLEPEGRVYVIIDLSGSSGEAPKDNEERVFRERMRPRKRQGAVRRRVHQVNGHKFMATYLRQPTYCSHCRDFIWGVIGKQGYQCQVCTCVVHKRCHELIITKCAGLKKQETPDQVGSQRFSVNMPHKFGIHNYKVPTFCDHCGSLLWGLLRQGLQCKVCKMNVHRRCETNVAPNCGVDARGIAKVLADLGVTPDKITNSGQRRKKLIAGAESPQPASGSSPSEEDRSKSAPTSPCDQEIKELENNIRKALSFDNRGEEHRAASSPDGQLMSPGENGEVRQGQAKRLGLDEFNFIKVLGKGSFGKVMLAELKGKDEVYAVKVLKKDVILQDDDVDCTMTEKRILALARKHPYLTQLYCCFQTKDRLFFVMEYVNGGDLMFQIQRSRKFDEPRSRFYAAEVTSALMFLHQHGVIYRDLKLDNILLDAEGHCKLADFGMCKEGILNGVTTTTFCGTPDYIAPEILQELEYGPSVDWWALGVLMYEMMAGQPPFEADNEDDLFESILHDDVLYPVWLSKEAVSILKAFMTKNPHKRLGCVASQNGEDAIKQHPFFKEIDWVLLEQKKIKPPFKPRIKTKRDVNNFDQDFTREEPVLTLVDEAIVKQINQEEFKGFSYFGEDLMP
Method: PKC assay. […] 0.5 micro Ci[^γ32P]ATP was added. […] The reaction was stopped by spotting the reaction mixtures on 1×2 cm strips of cellulose phosphate paper (Whatman P81) and immediately washing twice for 1 hr in 0.5% H3PO4. The cellulose phosphate strips were counted in a scintillation counter. In some experiments, phosphatidylserine, diacylglycerol, and/or calcium were removed. […]
To determine their PKC isozyme specificity, fatty acid derivatives were preincubated with purified PKC for five minutes and the PKC activity was measured radiometrically.

[4] = system: Endothelin-converting enzyme (ECE); assay: Endothelin-converting enzyme (ECE) activity in neuroblastoma cells; type: cell-based, human; conditions: bryostatin 0.27 nM, BR-101 1 μM, BR-111 1 μM
Method: ECE assay. […] neuroblastoma cells were incubated with bryostatin (0.27 nM), BR-101 (DCP-LA) (1 μM), and BR-111 (DHA-CP6) (1 μM). Endothelin-converting enzyme (ECE) was measured fluorimetrically using the method of Johnson and Ahn (Anal. Biochem. (2000), vol. 286, pp. 112-118). A sample of cell homogenate (20 μl) was incubated in 50 mM MES-KOH, pH 6.0, 0.01% C12E10 (polyoxyethylene-10-lauryl ether), and 15 μM McaBK2 (7-Methoxycoumarin-4-acetyl [Ala7-(2,4-Dinitrophenyl)Lys9]-bradykinin trifluoroacetate salt) (Sigma-Aldrich). After 60 min at 37° C., the reaction was quenched by adding trifluoroacetic acid to 0.5%. The sample was diluted to 1.4 ml with water and the fluorescence was measured at ex=334 nm, em=398 nm.

[5] = system: PKC; assay: PKC activation over time in H19-7/IGF-IR hippocampal cells; type: cell-based, rat
Method: (§1) Cell culture. Rat hippocampal H19-7/IGF-IR cells (ATCC, Manassas, Va.) were plated onto poly-L-lysine coated plates and grown at 35° C. in DMEM/10% FCS for several days until about 50% coverage was obtained. The cells were then induced to differentiate into a neuronal phenotype by replacing the medium with 5 ml N2 medium containing 10 ng/ml basic fibroblast growth factor at 39° C. and grown in T-75 flasks at 37° C. Human SH-SY5Y neuroblastoma cells (ATCC) were cultured in 45% F12K/45% MEM/10% FCS. Mouse N2A neuroblastoma cells were cultured in DMEM/10% FCS without glutamine. Rat hippocampal neurons from 18-day-old embryonic Sprague Dawley rat brains were plated on 12- or 96-well plates coated with poly-D-lysine (Sigma-Aldrich, St. Louis, Mo.) in B-27 neurobasal medium containing 0.5 mM glutamine and 25 μM glutamate (Invitrogen, Carlsbad, Calif.) and cultured for three days in the medium without glutamate. The neuronal cells were grown under 5% CO2 in an incubator maintained at 37° C. for 14 days.
Protein kinase C assay. Rat hippocampal cells were cultured and scraped in 0.2 ml homogenization buffer (20 mM Tris-HCl, pH 7.4, 50 mM NaF, 1 μg/ml leupeptin, and 0.1 mM PMSF) and homogenized by sonication a Marsonix microprobe sonicator (5 sec, 10W). To measure PKC, 10 μl of cell homogenate or purified PKC isozyme (purchased from Calbiochem) was incubated for 15 min at 37° C. in the presence of 10 μM histones, 4.89 mM CaCl2, 1.2 μg/μl phosphatidyl-L-serine, 0.18 μg/μl 1,2-dioctanoyl-sn-glycerol, 10 mM MgCl2, 20 mM HEPES (pH 7.4), 0.8 mM EDTA, 4 mM EGTA, 4% glycerol, 8 μg/ml aprotinin, 8 μg/ml leupeptin, and 2 mM benzamidine. 0.5 Ci [^γ32P]ATP was added and ^32P-phosphoprotein formation was measured by adsorption onto phosphocellulose as described previously. Nelson and Alkon, J. Neurochemistry (1995), vol. 65, pp. 2350-2357. For measurements of activation by BR-101 (DCP-LA) and similar compounds. PKC activity was measured in the absence of diacylglycerol and phosphatidylserine and PKC δ, ε, η, and μ were measured in the absence of added EGTA and CaCl2, as described by Kanno et al. (J. Lipid Res. 2006, vol. 47, pp. 1146-1150). Low concentrations of Ca^2+ are used because high Ca^2+ interacts with the PKC phosphatidylserine binding site and prevents activation. For measurements of bryostatin activation, 1,2-diacylglycerol was omitted unless otherwise stated.

[6] = system: α-secretase; conditions: cited from earlier work
[7] = system: Aβ; assay: Aβ production in N2a neuroblastoma cells transfected with human APPSwe/PSID; type: cell-based, mouse; conditions: 24 hours, various concentrations
Method: as §1
(§2) Aβ Measurement and Cell Viability Assay. Aβ was measured using an Aβ 1-42 human fluorimetric ELISA kit (Invitrogen) according to the manufacturer's instructions. Results were measured in a Biotek Synergy HT microplate reader. AlamarBlue and CyQuant NF (Invitrogen) according to the manufacturer's instructions.
To measure the effects of PKCε activation on Aβ production, mouse neuro2a (N2a) neuroblastoma cells transfected with human APPSwe/PSID were used, which produce large quantities of Aβ. Petanceska et al., J. Neurochem. (1996), vol. 74, pp. 1878-1884. […] With bryostatin, which activates PKC by binding to the diacylglycerol-binding site, the inhibition was biphasic with concentrations of 20 nM or higher producing no net effect. This may be explained by the ability of this class of PKC activators to downregulate PKC when used at high concentrations.

[8] = system: SH-SY5Y neuroblastoma cells; assay: Cell survival and proliferation (alamar Blue, CyQuant); type: cell-based, human; conditions: alamar Blue and CyQuant staining
Method: as §2

[9] = system: TACE; assay: TACE activity in neuronal cells; type: cell-based, human, mouse; conditions: SH-SY5Y cells, N2a cells, primary neurons from rat hippocampus
Method: TACE Assay. TACE was measured by incubating 5 μl cell homogenate, 3 μl buffer (50 mM Tris-HCl 7.4 plus 25 mM NaCl plus 4% glycerol), and 1 μl of 100 μM TACE substrate (Aβz-[…]-DPa) (Calbiochem) for 20 min at 37° C. 1.5-ml polypropylene centrifuge tubes. Jin et al., Anal. Biochem. (2002), vol. 302, pp. 269-275. The reaction was stopped by cooling to 4° C. The samples were diluted to 1 ml and the fluorescence was rapidly measured (ex=320 nm, em=420 nm) in a Spex Fluorolog 2 spectrofluorometer.

[10] = biological target: PKC; conditions: competition with [3H] phorbol dibutyrate; cited from earlier work

Compound: CCCCCCCC(=O)OC1C(=CC(=O)OC)CC2CC(CO)OC(=O)CC(O)CCOC(C(C)(C)C)CC3CCOC(C=CC(C)(C)C1(O)O2)O3 (stereo not drawn) [bryolog 3]
- Ki [1]: 6.5 nM

Compound: CC1=CC[C@H](C)C(C)(C)[C@@H]1/C=C/C(C)=C/CC[C@@]1(CO)[C@H](CCCO)/C(=C(/C)C=O)CC[C@]1(C)O [Iripallidal]
- GI50 (concentration required to inhibit growth by 50%) [2]: micromolar to nanomolar range

- concentration needed to activate PKC, times lower than for BR-101 (DCP-LA) [3]: approximately 100 times
- effect on purified PKCε (FIG. 7, FIG. 8) [3]: activated
Compound: CCCCCC1CC1CC1CC1CC1CC1CC1CC1CCCC(=O)OC (stereo not drawn) [BR-115, methyl 4-(2-((2-((2-((-pentylcyclopropyl)methyl)cyclopropyl)methyl)cyclopropyl)methyl)cyclopropyl)butanoate methyl ester]

- concentration needed to activate PKC, times lower than for BR-101 (DCP-LA) [3]: approximately 100 times
- effect on purified PKCε (FIG. 7, FIG. 8) [3]: activated
Compound: CCC1CC1CC1CC1CC1CC1CC1CC1CC1CC1CCCC(=O)OC (stereo not drawn) [BR-114]

- effect on purified PKCε (FIG. 7, FIG. 8) [3]: little or no effect
Compound: CCC1CC1CC1CC1CC1CC1CCCCCCCCO (stereo not drawn) [BR-104, linolenic alcohol tricyclopropane]

Compound: CCC/C=C/C=C/C(=O)O[C@H]1/C(=C/C(=O)OC)C[C@H]2C[C@H]([C@@H](C)O)OC(=O)C[C@H](O)C[C@@H]3C[C@H](OC(C)=O)C(C)(C)[C@](O)(C[C@@H]4C/C(=C/C(=O)OC)C[C@H](/C=C/C(C)(C)[C@]1(O)O2)O4)O3 [Bryostatin-1]
- ECE activity [4]: sustained increase
- PKC downregulation following activation ([5]; 0.04 nM and 0.2 nM): 20%
- time of return of PKC to baseline ([5]; 0.04 nM and 0.2 nM): ≤ 24 h
- PKC activation ([5]; 0.04 nM and 0.2 nM, data not shown): 2 fold
- PKC activity at 8 hours (downregulation) ([5]; data not shown): at or near the baseline
- increase of initial rate of α-secretase activity ([6]; 10 μM): 16 fold
- increase of initial rate of α-secretase activity ([6]; 100 μM): 132 fold
- levels of intracellular Aβ [7]: markedly reduced
- levels of secreted Aβ [7]: markedly reduced
- effect on cell survival [8]: no effect
- TACE activity [9]: small increases

- concentrations at which PKCε is inhibited [3]: above 1 μM
Compound: CCCCC[C@H]1O[C@H]1CC1CC1CCCCCCCC(=O)OC (stereo partly drawn) [BR-109, vernolic acid methyl ester cyclopropane]

- effect on purified PKCε (FIG. 7, FIG. 8) [3]: little or no effect
Compound: epoxystearic acid [BR-116]

Compound: CCCCCC1CC1CC1CC1CCCCCCCCO (stereo not drawn) [BR-105, linoleic alcohol dicyclopropane]
- effect on purified PKCε (FIG. 7, FIG. 8) [3]: little or no effect

Compound: CCCCCCCC(=O)OC1C(=CC(=O)OC)CC2CC(CO)OC(=O)CC(O)CCOC(CCCc3ccc(Br)cc3)CC3CCOC(C=CC(C)(C)C1(O)O2)O3 (stereo not drawn) [bryolog 5]
- Ki [1]: 1.9 nM

Compound: CCCCCCCC(=O)OC1C(=CC(=O)OC)CC2CC(CO)OC(=O)CC(O)CCOC(c3ccccc3)CC3CCOC(C=CC(C)(C)C1(O)O2)O3 (stereo not drawn) [bryolog 4]
- Ki [1]: 2.3 nM

Compound: CC1=C[C@]23C(=O)[C@@H](C=C(COC(=O)c4ccccc4)[C@@H](O)[C@]2(O)[C@H]1OC(=O)c1ccccc1)[C@H]1[C@@H](C[C@H]3C)C1(C)C [Ingenol 3,20-dibenzoate]
- Ki [10]: 240 nM

Compound: CCCCCC1OC1C/C=C\CCCCCCCC(=O)OC (stereo in doubt) [BR-117, vernolic acid methyl ester]
- effect on purified PKCε (FIG. 7, FIG. 8) [3]: little or no effect

Compound: CCCCCCCCCCCCCC(=O)O[C@@H]1[C@@H](C)[C@@]2(O)[C@@H](C=C(CO)C[C@]3(O)C(=O)C(C)=C[C@@H]23)[C@@H]2C(C)(C)[C@]12OC(C)=O [PMA, phorbol 12-myristate 13-acetate]
- PKC activity at 8 hours (downregulation) ([5]; data not shown): strongly downregulated
